The values below come from US20070287693A1, “Benzamide Derivatives That Act Upon The Glucokinase Enzyme” (priority 2004, published 2007).

SMILES strings stand for the structures.

The nature of this data set: Plasma protein binding by equilibrium dialysis. To be noted: rat plasma, 37° C., pH 7.4, read-out: % free in plasma. In kind it is in vitro ADME. The procedure:
3) Measurements of Plasma Protein Binding of Compounds
The plasma protein binding of compounds was measured using the equilibrium dialysis technique (W. Lindner et al, J. Chromatography, 1996, 677, 1-28). Compound was dialysed at a concentration of 20 μM for 18 hours at 37° C. with plasma and isotonic phosphate buffer pH 7.4 (1 ml of each in the dialysis cell). A Spectrum® 20-cell equilibrium dialyser was used together with Teflon, semi-micro dialysis cells and Spectra/Por®2 membrane discs with a molecular weight cut off 12-14000 Dalton, 47 mm (supplied by PerBio Science UK Ltd, Tattenhall, Cheshire). Plasma and buffer samples are removed following dialysis and analysed using HPLCUV/MS (high performance liquid chromatography with UV and mass spec detection) to give the % free level in plasma. [drawing 39]

Consider `CC[C@@H](CO)Oc1cc(Oc2ccc(C(=O)N3CCC3)cc2)cc(C(=O)Nc2ccn(C)n2)c1` [Example 13, 3-[4-(azetidin-1-ylcarbonyl)phenoxy]-5-{[(1S)-1-(hydroxymethyl)propyl]oxy}-N-(1-methyl-1H-pyrazol-3-yl)benzamide], for which the fraction unbound at 18 h, 20 μM was found to be 0.02.
